For this assay, the target named is T1, Full-length glucokinase (beta cell isoform) (Homo sapiens, UniProt P35557).
T1 construct: Full-length glucokinase (beta cell isoform) was His-tagged at N-terminus; His tag (N); made in house
T1 sequence (P35557 1-465): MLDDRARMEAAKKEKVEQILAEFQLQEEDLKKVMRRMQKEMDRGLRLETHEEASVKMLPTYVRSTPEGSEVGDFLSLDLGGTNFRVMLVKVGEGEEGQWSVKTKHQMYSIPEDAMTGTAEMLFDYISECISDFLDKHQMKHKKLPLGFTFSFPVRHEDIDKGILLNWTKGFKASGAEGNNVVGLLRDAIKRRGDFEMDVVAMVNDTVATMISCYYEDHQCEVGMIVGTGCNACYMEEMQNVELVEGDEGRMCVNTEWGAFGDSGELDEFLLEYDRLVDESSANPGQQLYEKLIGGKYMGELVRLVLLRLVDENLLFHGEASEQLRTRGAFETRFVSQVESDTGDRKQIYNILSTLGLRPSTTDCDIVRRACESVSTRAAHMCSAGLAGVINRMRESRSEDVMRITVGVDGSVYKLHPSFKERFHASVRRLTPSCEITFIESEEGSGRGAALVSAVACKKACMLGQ
Description: Glucokinase biochemical assay (PK/LDH-coupled, NADH depletion at 340 nm): % activation, EC50, % max activation. The settings on record: 5 mM glucose; for activation at 10 µM: 10 uM compound, % Activation=(Va/Vo−1)×100, read-out: % Activation at 10 uM; for EC50: GK activation, read-out: EC50; for Emax: fitted maximum activation, read-out: % Max Activation. The procedure, abridged:
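N-terminally His-tagged full-length human beta-cell glucokinase, room temperature, 5 mM glucose, 1 mM ATP, PK/LDH-coupled with 0.7 mM NADH, 1% DMSO final. Initial velocity from the 200–900 s slope of A340 decline. % activation = (Va/Vo−1)×100, measured across compound concentrations.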

Bounds are passed on as bounds.

One may read the EC50 as the concentration at which the effect is half-maximal.

For `CCc1cc2c(Oc3ccc(C(=O)N(C)C)cc3)cc(C(=O)Nc3ccc(C)cn3)cc2o1` [Example 276, 4-{4-[(Dimethylamino)carbonyl]phenoxy}-2-ethyl-N-(5-methylpyridin-2-yl)-1-benzofuran-6-carboxamide], the activation at 10 µM was 20%.

Turning to `Cc1ccc(NC(=O)c2cc(Oc3ccc(C(=O)N(C)C)nc3)c3cc(C)oc3c2)nc1` [Example 277, N,N-Dimethyl-5-[(2-methyl-6-{[(5-methylpyridin-2-yl)amino]-carbonyl}-1-benzofuran-4-yl)oxy]pyridine-2-carboxamide], the activation at 10 µM came to 34.2%.

As to `Cc1cc2c(Oc3ccc(C(=O)N(C)C)nc3)cc(C(=O)Nc3cnn(C)n3)cc2o1` [Example 278, N,N-Dimethyl-5-(2-methyl-6-((2-methyl-2H-1,2,3-triazol-4-yl)carbamoyl)-benzofuran-4-yloxy)picolinamide], the activation at 10 µM is 131%, the EC50 came out at 470 nM and the Emax stood at 123%.

Regarding `COc1cnc(NC(=O)c2cc(Oc3ccc(C(=O)N(C)C)nc3)c3cc(C)oc3c2)cn1` [Example 279, 5-(6-((5-Methoxypyrazin-2-yl)carbamoyl)-2-methylbenzofuran-4-yloxy)-N,N-dimethylpicolinamide], the activation at 10 µM was found to be 84.3%, the EC50 was 430 nM and the Emax was 105%.

With `Cc1cc2c(Oc3ccc(S(C)(=O)=O)cn3)cc(C(=O)Nc3cnc(N(C)C)cn3)cc2o1` [Example 280, N[5-(Dimethylamino)pyrazin-2-yl]-2-methyl-4-{[5-(methylsulfonyl)pyridin-2-yl]oxy}-1-benzofuran-6-carboxamide], the activation at 10 µM amounted to 130%, the EC50 is 2400 nM and the Emax came to 148%.

Take `Cc1ccc(NC(=O)c2cc(Oc3ccc(S(C)(=O)=O)cn3)c3cc(C)oc3c2)nc1` [Example 281, 2-Methyl-N-(5-methylpyridin-2-yl)-4-(5-(methylsulfonyl)pyridin-2-yloxy)-benzofuran-6-carboxamide]: the activation at 10 µM was 92.7%, the EC50 was determined as 2100 nM and the Emax stood at 87%.

Regarding `Cc1cc2c(Oc3ccc(S(C)(=O)=O)cn3)cc(C(=O)Nc3cnn(C)n3)cc2o1` [Example 282, 2-Methyl-N-(2-methyl-2H-1,2,3-triazol-4-yl)-4-(5-(methylsulfonyl)pyridin-2-yloxy)benzofuran-6-carboxamide], the activation at 10 µM was determined as 140% and the EC50 is above 10000 nM.

Regarding `Cc1cc2c(Oc3ccc(S(C)(=O)=O)cn3)cc(C(=O)Nc3ccn(C)n3)cc2o1` [Example 283, 2-Methyl-N-(1-methyl-1H-pyrazol-3-yl)-4-(5-(methylsulfonyl)-pyridin-2-yloxy)-benzofuran-6-carboxamide], the activation at 10 µM turned out to be 132% and the EC50 was above 10000 nM.

With `COc1cnc(NC(=O)c2cc(Oc3ccc(S(C)(=O)=O)cn3)c3cc(C)oc3c2)cn1` [Example 284, N-(5-Methoxypyrazin-2-yl)-2-methyl-4-(5-(methylsulfonyl)-pyridin-2-yloxy)-benzofuran-6-carboxamide], the activation at 10 µM turned out to be 86.1%, the EC50 was 5500 nM and the Emax is 218%.

In the case of `Cc1ccc(NC(=O)c2cc(Oc3ccc(S(C)(=O)=O)cc3)c3cc(C(=O)N(C)C)oc3c2)nc1` [Example 285, N2,N2-Dimethyl-N6-(5-methylpyridin-2-yl)-4-(4-(methylsulfonyl)-phenoxy)-benzofuran-2,6-dicarboxamide], the activation at 10 µM stood at 121%, the EC50 is 547 nM and the Emax was determined as 118%.

Regarding `CN(C)C(=O)c1cc2c(Oc3ccc(S(C)(=O)=O)cc3)cc(C(=O)Nc3ccn(C)n3)cc2o1` [Example 286, N2,N2-Dimethyl-N6-(1-methyl-1H-pyrazol-3-yl)-4-[4-(methylsulfonyl)phenoxy]-1-benzofuran-2,6-dicarboxamide], the activation at 10 µM came to 178%, the EC50 is 2600 nM and the Emax came out at 224%.

In the case of `COc1cnc(NC(=O)c2cc(Oc3ccc(S(C)(=O)=O)cc3)c3cc(C(=O)N(C)C)oc3c2)cn1` [Example 287, N6-(5-Methoxypyrazin-2-yl)-N2,N2-dimethyl-4-[4-(methylsulfonyl)phenoxy]-1-benzofuran-2,6-dicarboxamide], the activation at 10 µM came to 80.3%, the EC50 amounted to 562 nM and the Emax came to 169%.

As for `CN(C)C(=O)c1cc2c(Oc3ccc(S(C)(=O)=O)cc3)cc(C(=O)Nc3cnn(C)n3)cc2o1` [Example 288, N2,N2-Dimethyl-4-[4-(methylsulfonyl)phenoxy]-N6-(2-methyl-2H-1,2,3-triazol-4-yl)-1-benzofuran-2,6-dicarboxamide], the activation at 10 µM worked out at 161%, the EC50 came out at 1700 nM and the Emax came out at 188%.

As to `COc1ccnc(NC(=O)c2cc(Oc3ccc(S(C)(=O)=O)cc3)c3cc(C(=O)N(C)C)oc3c2)c1` [Example 289, N6-(4-Methoxypyridin-2-yl)-N2,N2-dimethyl-4-[4-(methylsulfonyl)phenoxy]-1-benzofuran-2,6-dicarboxamide], the activation at 10 µM was 73.8%, the EC50 worked out at 7800 nM and the Emax is 133%.

Regarding `Cc1ccc(NC(=O)c2cc(Oc3ccc(S(C)(=O)=O)cc3)c3cc(C(=O)N4CCC4)oc3c2)nc1` [Example 290, 2-(Azetidin-1-ylcarbonyl)-N-(5-methylpyridin-2-yl)-4-[4-(methylsulfonyl)-phenoxy]-1-benzofuran-6-carboxamide], the activation at 10 µM amounted to 12.8%.

As to `Cn1ccc(NC(=O)c2cc(Oc3ccc(S(C)(=O)=O)cc3)c3cc(C(=O)N4CCC4)oc3c2)n1` [Example 291, 2-(Azetidin-1-ylcarbonyl)-N-(1-methyl-1H-pyrazol-3-yl)-4-[4-(methylsulfonyl)-phenoxy]-1-benzofuran-6-carboxamide], the activation at 10 µM came out at 12.7%.

Take `Cn1ncc(NC(=O)c2cc(Oc3ccc(S(C)(=O)=O)cc3)c3cc(C(=O)N4CCC4)oc3c2)n1` [Example 292, 2-(Azetidin-1-ylcarbonyl)-4-[4-(methylsulfonyl)phenoxy]-N-(2-methyl-2H-1,2,3-triazol-4-yl)-1-benzofuran-6-carboxamide]: the activation at 10 µM was 16.7%.

For `COc1ccnc(NC(=O)c2cc(Oc3ccc(S(=O)(=O)N(C)C)c(F)c3)c3cc(C)oc3c2)c1` [Example 293, 4-{4-[(Dimethylamino)sulfonyl]-3-fluorophenoxy}-N-(4-methoxypyridin-2-yl)-2-methyl-1-benzofuran-6-carboxamide], the activation at 10 µM was determined as 46.9%, the EC50 turned out to be 590 nM and the Emax is 50%.

As for `Cc1cc2c(Oc3ccc(S(=O)(=O)N4CCC4)cc3)cc(C(=O)Nc3ccn(C)n3)cc2o1` [Example 294, 4-(4-(Azetidin-1-ylsulfonyl)phenoxy)-2-methyl-N-(1-methyl-1H-pyrazol-3-yl)benzofuran-6-carboxamide], the activation at 10 µM came out at 122%, the EC50 stood at 200 nM and the Emax was determined as 132%.

Regarding `COc1ccnc(NC(=O)c2cc(Oc3ccc(S(=O)(=O)N4CCC4)cc3)c3cc(C)oc3c2)c1` [Example 295, 4-(4-(Azetidin-1-ylsulfonyl)phenoxy)-N-(4-methoxypyridin-2-yl)-2-methyl-benzofuran-6-carboxamide], the activation at 10 µM was 46.9%, the EC50 was found to be 360 nM and the Emax is 50%.

On to `Cc1cc2c(Oc3ccc(S(=O)(=O)N4CCC4)cc3)cc(C(=O)Nc3ccccn3)cc2o1` [Example 296, 4-(4-(Azetidin-1-ylsulfonyl)phenoxy)-2-methyl-N-(pyridin-2-yl)benzofuran-6-carboxamide], for which the activation at 10 µM is 70%, the EC50 was determined as 200 nM and the Emax worked out at 77%.

Take `Cc1ccc(NC(=O)c2cc(Oc3ccc(S(=O)(=O)N4CCC4)cc3)c3cc(C)oc3c2)nc1` [Example 297, 4-(4-(Azetidin-1-ylsulfonyl)phenoxy)-2-methyl-N-(5-methylpyridin-2-yl)-benzofuran-6-carboxamide]: the activation at 10 µM is 61.9%, the EC50 amounted to 130 nM and the Emax came out at 68%.

For `Cc1cc2c(Oc3ccc(S(=O)(=O)N4CCC4)cc3)cc(C(=O)Nc3cnn(C)n3)cc2o1` [Example 298, 4-(4-(Azetidin-1-ylsulfonyl)phenoxy)-2-methyl-N-(2-methyl-2H-1,2,3-triazol-4-yl)benzofuran-6-carboxamide], the activation at 10 µM turned out to be 113%, the EC50 amounted to 210 nM and the Emax turned out to be 132%.

For `Cc1cc2c(Oc3ccc(S(=O)(=O)N4CCC4)cc3)cc(C(=O)Nc3cnc(N(C)C)cn3)cc2o1` [Example 299, 4-(4-(Azetidin-1-ylsulfonyl)phenoxy)-N-(5-(dimethylamino)-pyrazin-2-yl)-2-methylbenzofuran-6-carboxamide], the activation at 10 µM came to 106%, the EC50 was found to be 180 nM and the Emax came out at 107%.
